Test results taken from ChEMBL document CHEMBL4270667, “Design and Synthesis of Potent HIV-1 Protease Inhibitors Containing Bicyclic Oxazolidinone Scaffold as the P2 Ligands: Structure-Activity Studies and Biological and X-ray Structural Studies” (J Med Chem, 2018).
pIC50, pKi: −log10 of the molar value.

Assays:
Protease = Protease (Human immunodeficiency virus 1, UniProt Q9YQ12); test: Inhibition of HIV1 wild type NL4-3 protease expressed in Escherichia coli Rosetta (DE3) pLysS using Abz-Thr-Ile-Nle-Phe-(pNO2)-Gln-Arg-NH2 as substrate preincubated for 5 to 10 mins followed by substrate addition measured after 1 hr by fluorescence assay
[1] = tested on: Human immunodeficiency virus 1; test: Antiviral activity against HIV1 NL4-3 infected in human MT4 cells assessed as reduction in p24 Gag protein production after 7 days by automated chemiluminescent enzyme immunoassay; format: functional, organism-based; settings: Human immunodeficiency virus 1, NL4-3, MT4, 168 h
[2] = tested on: Human immunodeficiency virus 1; test: Antiviral activity against darunavir-resistant HIV1 at passage 21 infected in human MT4 cells assessed as reduction in p24 Gag protein production after 7 days by automated chemiluminescent enzyme immunoassay; format: functional, organism-based; settings: Human immunodeficiency virus 1, MT4, 168 h
[3] = tested on: Human immunodeficiency virus 1; test: Antiviral activity against lopinavir-resistant HIV1 infected in human MT4 cells assessed as reduction in p24 Gag protein production after 7 days by automated chemiluminescent enzyme immunoassay; format: functional, organism-based; settings: Human immunodeficiency virus 1, MT4, 168 h
[4] = tested on: Human immunodeficiency virus 1; test: Antiviral activity against amprenavir-resistant HIV1 infected in human MT4 cells assessed as reduction in p24 Gag protein production after 7 days by automated chemiluminescent enzyme immunoassay; format: functional, organism-based; settings: Human immunodeficiency virus 1, MT4, 168 h
[5] = tested on: Human immunodeficiency virus 1; test: Antiviral activity against Atazanavir-resistant HIV1 infected in human MT4 cells assessed as reduction in p24 Gag protein production after 7 days by automated chemiluminescent enzyme immunoassay; format: functional, organism-based; settings: Human immunodeficiency virus 1, MT4, 168 h
[6] = tested on: Human immunodeficiency virus 1; test: Antiviral activity against darunavir-resistant HIV1 at passage 51 infected in human MT4 cells assessed as reduction in p24 Gag protein production after 7 days by automated chemiluminescent enzyme immunoassay; format: functional, organism-based; settings: Human immunodeficiency virus 1, MT4, 168 h
[7] = tested on: Human immunodeficiency virus 1; test: Antiviral activity against darunavir-resistant HIV1 at passage 30 infected in human MT4 cells assessed as reduction in p24 Gag protein production after 7 days by automated chemiluminescent enzyme immunoassay; format: functional, organism-based; settings: Human immunodeficiency virus 1, MT4, 168 h
[8] = Selectivity ratio of CC50 for human MT4 cells to IC50 for HIV1 NL4-3 infected in human MT4 cells; format: toxicity, cell-based; settings: MT4 cells infected with HIV1 NL4-3, read-out: Ratio CC50/IC50
MT4 = test: Cytotoxicity against human MT4 cells after 7 days by MTT assay; format: cell-based; settings: mt4, 168 h

Chain of Protease (Q9YQ12 whole entry): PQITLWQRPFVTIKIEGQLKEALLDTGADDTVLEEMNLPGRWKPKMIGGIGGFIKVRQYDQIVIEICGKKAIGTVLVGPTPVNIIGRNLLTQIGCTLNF

Row | Structure (SMILES) | pKi (Protease) | pIC50 [1] | pIC50 [2] | pIC50 [3] | pIC50 [4] | pIC50 [5] | pIC50 [6] | pIC50 [7] | selectivity ratio [8] | CC50 (MT4)
1 | COc1ccc(S(=O)(=O)N(CC(C)C)C[C@@H](O)[C@H](Cc2ccccc2)NC(=O)O[C@H]2C[C@H]3OC(=O)N(c4ccccc4)[C@H]3C2)cc1 | 9.48 | < 6.00 | – | – | – | – | – | – | – | –
2 | COc1ccc(S(=O)(=O)N(CC(C)C)C[C@@H](O)[C@H](Cc2ccccc2)NC(=O)O[C@@H]2C[C@@H]3OC(=O)N[C@@H]3C2)cc1 | 8.88 | < 6.00 | – | – | – | – | – | – | – | –
3 | COc1ccc(S(=O)(=O)N(CC(C)C)C[C@@H](O)[C@H](Cc2ccccc2)NC(=O)O[C@H]2C[C@H]3OC(=O)N(c4ccccc4OC)[C@H]3C2)cc1 | 10.10 | 6.60 | – | – | – | – | – | – | – | –
4 | COc1ccc(S(=O)(=O)N(CC(C)C)C[C@@H](O)[C@H](Cc2ccccc2)NC(=O)O[C@H]2C[C@H]3OC(=O)N(c4cccc(OC)c4)[C@H]3C2)cc1 | 7.03 | < 6.00 | – | – | – | – | – | – | – | –
5 | CC(C)CN(C[C@@H](O)[C@H](Cc1ccccc1)NC(=O)O[C@H]1CCOC1)S(=O)(=O)c1ccc(N)cc1 | – | 6.37 | < 6.00 | < 6.00 | < 6.00 | < 6.00 | < 6.00 | < 6.00 | – | –
6 | C=CCN1C(=O)O[C@@H]2C[C@H](OC(=O)N[C@@H](Cc3ccccc3)[C@H](O)CN(CC(C)C)S(=O)(=O)c3ccc(OC)cc3)C[C@@H]21 | 10.80 | 6.43 | – | – | – | – | – | – | – | –
7 | CC(C)(C)NC(=O)[C@@H]1C[C@@H]2CCCC[C@@H]2CN1C[C@@H](O)[C@H](Cc1ccccc1)NC(=O)[C@H](CC(N)=O)NC(=O)c1ccc2ccccc2n1 | – | 7.68 | – | – | – | – | – | – | – | –
8 | COc1ccc(S(=O)(=O)N(CC(C)C)C[C@@H](O)[C@H](Cc2ccccc2)NC(=O)O[C@@H]2C[C@@H]3OC(=O)N(C)[C@@H]3C2)cc1 | 9.80 | 6.36 | – | – | – | – | – | – | > 229 | > 100000 nM
9 | CC(C)CN(C[C@@H](O)[C@H](Cc1ccccc1)NC(=O)O[C@H]1CO[C@H]2OCC[C@H]21)S(=O)(=O)c1ccc(N)cc1 | – | 8.46 to 8.49 | – | – | – | – | < 6.00 | – | – | –
10 | COCN1C(=O)O[C@@H]2C[C@H](OC(=O)N[C@@H](Cc3ccccc3)[C@H](O)CN(CC(C)C)S(=O)(=O)c3ccc(OC)cc3)C[C@@H]21 | 10.80 | 7.08 | – | – | – | – | – | – | – | –
11 | COc1ccc(S(=O)(=O)N(CC(C)C)C[C@@H](O)[C@H](Cc2ccccc2)NC(=O)O[C@H]2C[C@H]3OC(=O)N(CC(C)C)[C@H]3C2)cc1 | 9.80 | – | < 6.00 | 6.21 | 6.51 | 7.48 | < 6.00 | < 6.00 | > 2440 | > 100000 nM
12 | COc1ccc(N2C(=O)O[C@@H]3C[C@H](OC(=O)N[C@@H](Cc4ccccc4)[C@H](O)CN(CC(C)C)S(=O)(=O)c4ccc(OC)cc4)C[C@@H]32)cc1 | 9.20 | < 6.00 | – | – | – | – | – | – | – | –
13 | CC(C)CN(C[C@@H](O)[C@H](Cc1ccccc1)NC(=O)O[C@H]1C[C@H]2OC(=O)N(C)[C@H]2C1)S(=O)(=O)c1ccc2nc(NC3CC3)sc2c1 | 9.72 | 7.55 | – | – | – | – | – | – | 1540 | 43000 nM
14 | COc1ccc(S(=O)(=O)N(CC(C)C)C[C@@H](O)[C@H](Cc2ccccc2)NC(=O)O[C@@H]2C[C@@H]3NC(=O)O[C@@H]3C2)cc1 | 11.92 | 7.32 | – | – | – | – | – | – | > 2070 | > 100000 nM
15 | Cc1cccc(C)c1OCC(=O)N[C@@H](Cc1ccccc1)[C@@H](O)C[C@H](Cc1ccccc1)NC(=O)[C@H](C(C)C)N1CCCNC1=O [LOPINAVIR] | – | 8.22 | < 6.00 | < 6.00 | 6.66 | 6.51 | < 6.00 | < 6.00 | – | –
16 | CCCN1C(=O)O[C@@H]2C[C@H](OC(=O)N[C@@H](Cc3ccccc3)[C@H](O)CN(CC(C)C)S(=O)(=O)c3ccc(OC)cc3)C[C@@H]21 | 9.85 | 6.35 | – | – | – | – | – | – | – | –
17 | COC(=O)N[C@H](C(=O)N[C@@H](Cc1ccccc1)[C@@H](O)CN(Cc1ccc(-c2ccccn2)cc1)NC(=O)[C@@H](NC(=O)OC)C(C)(C)C)C(C)(C)C [ATAZANAVIR] | – | 9.05 | < 6.00 | 6.53 | 8.70 | < 6.00 | < 6.00 | < 6.00 | – | –
18 | C=C(C)CN1C(=O)O[C@@H]2C[C@H](OC(=O)N[C@@H](Cc3ccccc3)[C@H](O)CN(CC(C)C)S(=O)(=O)c3ccc(OC)cc3)C[C@@H]21 | 10.40 | 7.51 to 7.64 | < 6.00 | < 6.00 | 6.58 | 7.44 | < 6.00 | < 6.00 | > 3230 | > 100000 nM
19 | COc1ccc(S(=O)(=O)N(CC(C)C)C[C@@H](O)[C@H](Cc2ccccc2)NC(=O)O[C@H]2C[C@H]3OC(=O)N(C)[C@H]3C2)cc1 | 10.52 | 7.44 | – | – | – | – | – | – | > 2780 | –
